Earlier results, collected in paper doi:10.1101/2025.05.01.651722v1 (bioRxiv, 2025).
No end group written: not given here.

Settings: solubility maintained by hydrophilic arginine tail

## H-RLTRKRGLKLAGGGGGRRRRRRRRR [ApoB^11]
  hydrophobicity of the peptide: highly hydrophobic
